The values that follow come from US12545673B2, “Imidazopyridine derivative and pharmaceutical composition comprising same as active ingredient” (TSD LIFE SCIENCES CO., LTD., priority 2019, dated 2026).

Like-named read-outs stand apart in the source and are kept apart here. Some results are limits rather than exact numbers.

For one data set, the target named is MLK1 (Homo sapiens (Human), UniProt P80192). The data set can be described thus: Evaluation of inhibitory activity of enzyme units, MLK1 ([γ-33P]-ATP filter assay). It is filed as biochemical.
The test system of data set [1] is human breast cancer cell line MDA-MB-231. The data set can be described thus: Cancer cell proliferation inhibitory activity evaluation 1 (CCK-8), MDA-MB-231. It counts as cell-based.
Data set [2] deals with acute myeloid leukemia cell line U937. The data set can be described thus: Cancer cell proliferation inhibitory activity evaluation 1 (CCK-8), U937. It is filed as cell-based. Particulars: Homo sapiens, read-out: Cancer cell proliferation inhibitory activity U937.
Data set [3] has as its system colorectal cancer cell line HT-29. The data set can be described thus: Cancer cell proliferation inhibitory activity evaluation 1 (CCK-8), HT-29. It is filed as cell-based. Particulars: Homo sapiens, read-out: Cancer cell proliferation inhibitory activity HT29.
The subject of data set [4] is chronic myeloid leukemia cell line K562. The data set can be described thus: Cancer cell proliferation inhibitory activity evaluation 1 (CCK-8), K562. Particulars: Homo sapiens, read-out: Cancer cell proliferation inhibitory activity K562. It counts as cell-based.
Data set [5] relates to acute myeloid leukemia cell line U937. The data set can be described thus: Cancer cell proliferation inhibitory activity evaluation 2 (CCK-8), U937. Particulars: Homo sapiens, read-out: Cancer cell proliferation inhibitory activity U937. It counts as cell-based.
Data set [6] has as its system acute lymphoblastic leukemia cell line Jurkat. The data set can be described thus: Cancer cell proliferation inhibitory activity evaluation 2 (CCK-8), Jurkat. It counts as cell-based. To be noted: Homo sapiens.
For data set [7], the system named is gastric cancer cell line AGS. The data set can be described thus: Cancer cell proliferation inhibitory activity evaluation 2 (CCK-8), AGS. It counts as cell-based. To be noted: Homo sapiens, read-out: Cancer cell proliferation inhibitory activity AGS.
The test system of data set [8] is α-SMA. The data set can be described thus: Fibrosis inhibition evaluation 1, palmitic acid-induced HepG2, real-time PCR, α-SMA. It is filed as cell-based, human. Particulars: palmitic acid-induced HepG2 (Table 6). (In general: In qPCR the cycle at which signal appears reflects the starting amount.)
Another data set deals with Col1A1. The data set can be described thus: Fibrosis inhibition evaluation 1, palmitic acid-induced HepG2, real-time PCR, Col1A1. It counts as cell-based, human.
Another data set concerns Col6A3. The data set can be described thus: Fibrosis inhibition evaluation 1, palmitic acid-induced HepG2, real-time PCR, Col6A3. It counts as cell-based, human.
The target of a further data set is LRRK2 wild-type (Homo sapiens (Human), UniProt Q5S007). The data set can be described thus: Evaluation of inhibitory activity against LRRK2 (affinity bead competition binding), wild-type. To be noted: read-out: Residual active values (%) LRRK2; for remaining binding at 0.1 µM: 100 nM; for remaining binding at 0.5 µM: 500 nM. The gist of the method: (§1)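 Competition binding against immobilized biotinylated ligand for DNA-tagged wild-type or G2019S LRRK2, produced from T7 phage-infected E. coli (MOI 0.4, 32° C.) lysate then HEK293 cells. Beads blocked and washed in SeaBlock buffer (1% BSA, 0.05% Tween 20, 1 mM DTT); compounds prepared as 40× stocks in 100% DMSO.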

For another data set, the target named is LRRK2 mutant (G2019S) (Homo sapiens (Human), UniProt Q5S007, G2019S). The data set can be described thus: Evaluation of inhibitory activity against LRRK2 (affinity bead competition binding), G2019S mutant. To be noted: read-out: Residual active values (%) LRRK2(G2019S); for remaining binding at 0.1 µM: 100 nM; for remaining binding at 0.5 µM: 500 nM. The essentials: as §1

The next data set relates to influenza virus PR8. The data set can be described thus: microbe, parasite or virus in culture. Particulars: unidentified influenza virus, PR8, MDCK, read-out: Antiviral activity (EC50, μM) PR8. It counts as cell-based.
The next data set deals with influenza virus HK. The data set can be described thus: microbe, parasite or virus in culture. It is filed as cell-based. Particulars: for EC50: unidentified influenza virus, MDCK, read-out: Antiviral activity (EC50, μM) HK.
The test system of another data set is influenza virus LE. The data set can be described thus: microbe, parasite or virus in culture. It is filed as cell-based. To be noted: for EC50: unidentified influenza virus, MDCK, read-out: Antiviral activity (EC50, μM) LE.
A short description of a further data set: in vitro. To be noted: dog.
Another data set concerns the target MLK3 (Homo sapiens (Human), UniProt Q16584). The data set can be described thus: Evaluation of inhibitory activity of enzyme units, MLK3 ([γ-33P]-ATP filter assay). To be noted: read-out: IC50(nM) MLK3.
A further data set concerns the target MLK2 (Homo sapiens (Human), UniProt Q02779). The data set can be described thus: Evaluation of inhibitory activity of enzyme units, MLK2 ([γ-33P]-ATP filter assay). It counts as biochemical.
Data set [9] relates to α-SMA. The data set can be described thus: Fibrosis inhibition evaluation 2, palmitic acid-induced HepG2, real-time PCR, α-SMA. To be noted: palmitic acid-induced HepG2 (Table 8).
A further data set concerns TGF-β1. The data set can be described thus: Fibrosis inhibition evaluation 2, palmitic acid-induced HepG2, real-time PCR, TGF-β1.
The test system of a further data set is Fibronectin-1. The data set can be described thus: Fibrosis inhibition evaluation 2, palmitic acid-induced HepG2, real-time PCR, Fibronectin-1.
[10] abbreviates: 72 h, read-out: Cancer cell proliferation inhibitory activity Jurkat.

MLK3, sequence (Q16584 whole entry, looked up): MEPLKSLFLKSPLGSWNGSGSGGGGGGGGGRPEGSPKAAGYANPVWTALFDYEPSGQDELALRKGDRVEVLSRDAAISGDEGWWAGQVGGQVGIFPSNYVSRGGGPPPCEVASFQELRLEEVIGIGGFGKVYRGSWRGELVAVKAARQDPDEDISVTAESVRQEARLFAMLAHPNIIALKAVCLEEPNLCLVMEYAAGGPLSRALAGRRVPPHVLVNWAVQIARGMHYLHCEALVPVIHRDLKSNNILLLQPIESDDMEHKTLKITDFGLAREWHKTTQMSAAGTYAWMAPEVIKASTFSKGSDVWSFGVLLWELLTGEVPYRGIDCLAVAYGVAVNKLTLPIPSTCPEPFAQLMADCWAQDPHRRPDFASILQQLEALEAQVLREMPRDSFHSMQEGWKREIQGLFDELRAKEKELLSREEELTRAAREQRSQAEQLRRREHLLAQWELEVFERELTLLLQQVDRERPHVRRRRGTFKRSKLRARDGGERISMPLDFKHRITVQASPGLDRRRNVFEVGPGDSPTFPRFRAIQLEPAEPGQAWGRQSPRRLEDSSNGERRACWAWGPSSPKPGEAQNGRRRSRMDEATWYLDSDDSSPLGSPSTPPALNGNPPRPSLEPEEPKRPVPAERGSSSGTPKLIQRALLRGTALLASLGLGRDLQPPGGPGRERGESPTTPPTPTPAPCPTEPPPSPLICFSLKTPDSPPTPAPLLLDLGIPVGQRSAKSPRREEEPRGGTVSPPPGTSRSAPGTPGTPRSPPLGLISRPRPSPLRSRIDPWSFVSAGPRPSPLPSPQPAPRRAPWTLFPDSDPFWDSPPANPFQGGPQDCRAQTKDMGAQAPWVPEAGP
LRRK2 wild-type, sequence (Q5S007 whole entry, looked up): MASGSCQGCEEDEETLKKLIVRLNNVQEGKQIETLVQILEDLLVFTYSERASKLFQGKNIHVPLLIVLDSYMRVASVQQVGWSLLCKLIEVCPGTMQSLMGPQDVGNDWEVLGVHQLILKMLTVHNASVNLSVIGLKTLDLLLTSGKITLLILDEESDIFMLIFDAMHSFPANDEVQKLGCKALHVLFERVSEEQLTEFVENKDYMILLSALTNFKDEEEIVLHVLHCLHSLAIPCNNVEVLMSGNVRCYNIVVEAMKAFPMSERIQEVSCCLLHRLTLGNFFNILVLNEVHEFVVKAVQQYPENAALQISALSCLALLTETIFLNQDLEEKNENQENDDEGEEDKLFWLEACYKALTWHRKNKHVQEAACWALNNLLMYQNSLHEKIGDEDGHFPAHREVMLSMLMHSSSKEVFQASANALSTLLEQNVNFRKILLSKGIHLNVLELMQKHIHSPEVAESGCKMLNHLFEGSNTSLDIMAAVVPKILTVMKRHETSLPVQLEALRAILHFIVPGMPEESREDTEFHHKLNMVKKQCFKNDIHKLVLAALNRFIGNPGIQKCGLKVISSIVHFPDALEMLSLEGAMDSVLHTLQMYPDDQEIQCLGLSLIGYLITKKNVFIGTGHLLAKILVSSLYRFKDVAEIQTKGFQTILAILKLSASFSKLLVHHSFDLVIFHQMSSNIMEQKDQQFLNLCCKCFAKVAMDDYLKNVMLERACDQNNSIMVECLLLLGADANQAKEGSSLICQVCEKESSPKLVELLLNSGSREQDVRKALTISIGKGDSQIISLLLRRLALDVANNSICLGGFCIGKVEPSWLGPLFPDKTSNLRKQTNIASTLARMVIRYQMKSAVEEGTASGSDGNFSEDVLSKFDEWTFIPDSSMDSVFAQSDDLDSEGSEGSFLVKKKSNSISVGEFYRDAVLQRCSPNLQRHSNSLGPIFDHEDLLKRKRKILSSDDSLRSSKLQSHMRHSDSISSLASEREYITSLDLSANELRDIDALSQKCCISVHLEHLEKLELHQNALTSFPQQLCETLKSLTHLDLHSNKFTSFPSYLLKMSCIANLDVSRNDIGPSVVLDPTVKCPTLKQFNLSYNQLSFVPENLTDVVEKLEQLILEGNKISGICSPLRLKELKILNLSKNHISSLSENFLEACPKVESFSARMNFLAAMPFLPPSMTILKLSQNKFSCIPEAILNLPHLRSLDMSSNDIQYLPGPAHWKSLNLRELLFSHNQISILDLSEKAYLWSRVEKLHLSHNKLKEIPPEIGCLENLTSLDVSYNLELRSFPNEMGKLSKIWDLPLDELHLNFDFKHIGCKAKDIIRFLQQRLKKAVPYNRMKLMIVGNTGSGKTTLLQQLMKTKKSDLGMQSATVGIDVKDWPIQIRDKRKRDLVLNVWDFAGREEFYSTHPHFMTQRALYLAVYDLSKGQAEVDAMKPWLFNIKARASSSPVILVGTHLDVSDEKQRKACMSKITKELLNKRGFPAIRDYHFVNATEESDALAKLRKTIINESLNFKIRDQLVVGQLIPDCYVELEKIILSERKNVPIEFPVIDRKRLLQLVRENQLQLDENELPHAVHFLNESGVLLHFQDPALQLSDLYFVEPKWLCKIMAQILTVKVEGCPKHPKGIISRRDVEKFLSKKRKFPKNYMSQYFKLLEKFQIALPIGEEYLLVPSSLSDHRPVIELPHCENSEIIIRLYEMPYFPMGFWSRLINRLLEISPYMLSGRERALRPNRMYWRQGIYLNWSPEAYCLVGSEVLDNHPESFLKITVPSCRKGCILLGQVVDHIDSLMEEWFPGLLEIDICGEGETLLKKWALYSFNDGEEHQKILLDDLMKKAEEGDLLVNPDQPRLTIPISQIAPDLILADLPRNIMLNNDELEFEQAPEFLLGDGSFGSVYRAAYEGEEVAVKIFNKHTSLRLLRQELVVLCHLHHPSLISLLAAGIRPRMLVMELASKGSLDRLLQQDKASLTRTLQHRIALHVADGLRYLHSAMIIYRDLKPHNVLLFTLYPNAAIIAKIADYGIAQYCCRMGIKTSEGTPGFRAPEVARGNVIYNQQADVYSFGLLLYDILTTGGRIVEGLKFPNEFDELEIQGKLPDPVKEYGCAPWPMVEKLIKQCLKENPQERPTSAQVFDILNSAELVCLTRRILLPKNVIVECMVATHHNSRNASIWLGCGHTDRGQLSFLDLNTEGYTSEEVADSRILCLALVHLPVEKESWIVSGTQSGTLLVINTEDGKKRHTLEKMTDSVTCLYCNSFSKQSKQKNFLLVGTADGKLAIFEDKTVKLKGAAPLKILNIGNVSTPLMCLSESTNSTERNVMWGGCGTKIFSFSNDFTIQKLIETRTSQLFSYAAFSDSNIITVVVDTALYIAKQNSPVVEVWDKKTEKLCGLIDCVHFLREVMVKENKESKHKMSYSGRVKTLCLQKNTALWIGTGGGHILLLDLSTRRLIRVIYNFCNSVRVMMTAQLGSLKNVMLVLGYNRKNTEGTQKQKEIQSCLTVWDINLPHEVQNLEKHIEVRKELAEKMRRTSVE
LRRK2 mutant (G2019S), sequence (Q5S007 whole entry G2019S, looked up): as the sequence (Q5S007 whole entry, looked up) above, with G2019S counted along it
MLK1, sequence (P80192 whole entry, looked up): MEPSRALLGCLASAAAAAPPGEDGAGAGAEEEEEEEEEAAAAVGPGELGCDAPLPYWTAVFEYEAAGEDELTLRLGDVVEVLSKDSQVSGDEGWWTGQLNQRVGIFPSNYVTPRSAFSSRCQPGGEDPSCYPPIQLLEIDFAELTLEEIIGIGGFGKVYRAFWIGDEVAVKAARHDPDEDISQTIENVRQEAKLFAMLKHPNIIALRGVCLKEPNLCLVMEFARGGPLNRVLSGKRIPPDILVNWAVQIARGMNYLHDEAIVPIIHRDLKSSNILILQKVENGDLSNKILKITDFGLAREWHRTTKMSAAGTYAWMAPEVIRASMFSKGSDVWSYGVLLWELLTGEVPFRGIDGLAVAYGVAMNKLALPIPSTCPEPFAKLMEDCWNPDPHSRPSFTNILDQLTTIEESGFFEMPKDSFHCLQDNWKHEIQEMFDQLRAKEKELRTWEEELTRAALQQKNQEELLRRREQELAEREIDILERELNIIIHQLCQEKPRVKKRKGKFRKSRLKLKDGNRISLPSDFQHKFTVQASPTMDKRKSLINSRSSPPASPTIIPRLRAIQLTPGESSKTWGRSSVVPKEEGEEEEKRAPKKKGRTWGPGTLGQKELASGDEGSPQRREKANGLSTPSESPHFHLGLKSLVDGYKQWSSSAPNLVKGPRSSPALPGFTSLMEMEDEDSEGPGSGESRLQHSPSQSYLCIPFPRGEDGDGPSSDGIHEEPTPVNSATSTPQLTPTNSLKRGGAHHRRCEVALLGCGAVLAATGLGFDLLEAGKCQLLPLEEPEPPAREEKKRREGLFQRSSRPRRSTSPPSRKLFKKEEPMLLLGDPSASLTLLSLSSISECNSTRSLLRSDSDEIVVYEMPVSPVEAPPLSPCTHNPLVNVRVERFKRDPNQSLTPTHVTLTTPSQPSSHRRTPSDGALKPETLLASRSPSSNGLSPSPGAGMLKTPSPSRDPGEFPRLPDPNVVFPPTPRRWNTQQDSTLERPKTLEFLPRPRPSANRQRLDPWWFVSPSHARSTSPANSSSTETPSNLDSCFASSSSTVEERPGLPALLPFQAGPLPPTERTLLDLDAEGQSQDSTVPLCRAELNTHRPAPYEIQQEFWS

One may read the IC50 as the concentration at which inhibition is half-maximal. For orientation: EC50 means the concentration that produces a half-maximal response. Regarding `CCS(=O)(=O)N1CC[C@H](Nc2c(Br)cnc3[nH]c(-c4cc(C)n(-c5cc(NS(C)(=O)=O)ccc5C)c4C)nc23)C1` [Example 7, N-(3-(3-(6-bromo-7-(((S)-1-(ethylsulfonyl)pyrrolidine-3-yl)amino)-3H-imidazo[4,5-b]pyridine-2-yl)-2,5-dimethyl-1H-pyrrol-1-yl)-4-methylphenyl) methanesulfonamide], the values for the IC50 on MLK1 and on MLK3 were 44 nM and 6 nM, respectively. Moreover, the inhibition at 10 µM in data set [1] (MDA-MB-231, 72 h, read-out: Cancer cell proliferation inhibitory activity MDAMB231) is 10 to 50%; in [2] (U-937, 72 h) it was more than 50%; in data set [3] (HT-29, 72 h), 10 to 50%; in [4] (K562, 72 h) it was more than 50%; in data set [5] (U-937, 72 h) it was more than 50%; in data set [6] (setting [10]), more than 50%. Further, in data set [7] (72 h), the inhibition at 10 µM is more than 50%. Also, the “Relative degree of expression inhibition (%) α-SMA” value with α-SMA [8] stood at 73.1%. Further, the “Relative degree of expression inhibition (%) Col1A1” value with Col1A1 is reported as 200.2%. In addition, in the data set with Col6A3, the “Relative degree of expression inhibition (%) Col6A3” value is 116.2%. Besides, the results for the remaining binding at 0.1 µM at LRRK2 wild-type and on LRRK2 mutant (G2019S) were 2.9% and 2.3%, respectively. In addition, the remaining binding at 0.5 µM at LRRK2 wild-type came to 0.4%; at LRRK2 mutant (G2019S), 1.5%. Further, the EC50 in the data set with influenza virus PR8 is 31.9 µM; in the data set on influenza virus HK, 40 µM; with influenza virus LE it was more than 100 µM. Further, the “Selectivity index: CC50/EC50 HK” value in the data set on influenza virus HK is more than 2.5. In “in vitro”, this compound showed a CC50 at 3 days of more than 100 µM.

As for `CCS(=O)(=O)N1CC[C@H](Nc2c(Br)cnc3nc(-c4cc(C)n(-c5cccc(S(N)(=O)=O)c5)c4C)[nH]c23)C1` [Example 23, (S)-3-(3-(6-bromo-7-((1-(ethylsulfonyl)pyrrolidine-3-yl)amino)-1H-imidazo[4,5-b]pyridine-2-yl)-2,5-dimethyl-1H-pyrrol-1-yl)benzenesulfonamide], the IC50 at MLK2 came out at 56 nM; at MLK1 it was 25 nM; at MLK3 it was 17 nM. The inhibition at 10 µM was 10 to 50% in data set [5] (U-937, 72 h); more than 50% in data set [6] (setting [10]); 10 to 50% in [7] (72 h). The values for the EC50 with influenza virus PR8, with influenza virus HK and in the data set with influenza virus LE were more than 100 µM, 31.6 µM and more than 100 µM, respectively. Moreover, the “Selectivity index: CC50/EC50 HK” value with influenza virus HK was more than 3.2. In “in vitro”, the CC50 at 3 days is more than 100 µM.

For the compound `CCS(=O)(=O)N1CC[C@H](Nc2c(Br)cnc3nc(-c4cc(C)n(-c5ccc(OCCN6CCOCC6)cc5)c4C)[nH]c23)C1` [Example 4, (S)-6-bromo-2-(2,5-dimethyl-1-(4-(2-morpholinoethoxy)phenyl)-1H-pyrrol-3-yl)-N-(1-(ethylsulfonyl)pyrrolidine-3-yl)-1H-imidazo[4,5-b]pyridine-7-amine], the inhibition at 10 µM in [1] (MDA-MB-231, 10 μM, 72 hours, CCK-8, read-out: Cancer cell proliferation inhibitory activity MDAMB231) is 10 to 50%; in data set [2] (U-937, 10 μM, 72 hours, CCK-8 (Table 2)), more than 50%; in data set [3] (HT-29, 10 μM, 72 hours, CCK-8) it was more than 50%; in data set [4] (K562, 10 μM, 72 hours, CCK-8), more than 50%; in data set [5] (U-937, 10 μM, 72 hours, CCK-8 (Table 3)), more than 50%; in data set [6] (10 μM, 72 hours, CCK-8, read-out: Cancer cell proliferation inhibitory activity Jurkat), more than 50%. The inhibition at 10 µM in data set [7] (10 μM, 72 hours, CCK-8) is more than 50%. For the same compound, the EC50 with influenza virus PR8 came to 11.1 µM; in the data set with influenza virus HK it was 9.8 µM; with influenza virus LE it was 9.9 µM. For the same compound, the “Selectivity index: CC50/EC50 HK” value in the data set on influenza virus HK is listed as more than 10.2. The “Selectivity index: CC50/EC50 LE” value in the data set with influenza virus LE was more than 10.1. In “in vitro”, this compound returned a CC50 at 3 days of more than 100 µM.

For `CCS(=O)(=O)N1CC[C@H](Nc2c(Br)cnc3nc(-c4cc(C)n(-c5cccc(NS(C)(=O)=O)c5)c4C)[nH]c23)C1` [Example 12, (S)—N-(3-(3-(6-bromo-7-((1-(ethylsulfonyl)pyrrolidine-3-yl)amino)-1H-imidazo[4,5-b]pyridine-2-yl)-2,5-dimethyl-1H-pyrrol-1-yl)phenyl) methanesulfonamide], the figures for the IC50 against MLK2, against MLK1 and on MLK3 were 65 nM, 52 nM and 7 nM, respectively. Also, the inhibition at 10 µM was 10 to 50% in data set [5] (U-937, 72 h); 10 to 50% in data set [6] (setting [10]); more than 50% in data set [7] (72 h). Moreover, the remaining binding at 0.1 µM came out at 16% on LRRK2 wild-type and 3.6% at LRRK2 mutant (G2019S). Besides, the remaining binding at 0.5 µM came to 3.7% at LRRK2 wild-type and 0.5% on LRRK2 mutant (G2019S). Besides, the EC50 with influenza virus PR8 was 100 µM; in the data set on influenza virus HK it was 27 µM; in the data set on influenza virus LE, more than 100 µM. The “Selectivity index: CC50/EC50 HK” value in the data set on influenza virus HK is more than 3.7. Further, the CC50 at 3 days in “in vitro” was more than 100 µM. Moreover, the “Relative degree of expression inhibition (%) α-SMA” value in the data set on α-SMA [9] is recorded as 49.92%. For the same compound, the “Relative degree of expression inhibition (%) TGF-β1” value in the data set on TGF-β1 is 113.03%. Moreover, the “Relative degree of expression inhibition (%) Fibronectin-1” value in the data set with Fibronectin-1 is on record as 74.32%.
